biological target: truncated PI3Kα (p110α/iSH2 p85α), PI3KA_Act (Homo sapiens (Human), UniProt P42336); assay: PI3Kα biochemical kinase assay, fluorescence polarization format (PI3KA_Act); details: 0.5 nM p110α/iSH2 p85, 1 mM ATP, 30 μM PIP2, 15-min preincubation; Morrison equation fit; read-out: PI3KA_Act Ki
In short: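 Enzyme: His-tagged p110α/p85α niSH2 complex from Sf21 baculovirus expression, IMAC-purified, tag cleaved, then SEC. Reactions ran 30 min at room temperature, stopped with 10 mM EDTA pH 8 (final), and were read by fluorescence polarization.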

Sequence of truncated PI3Kα (p110α/iSH2 p85α), PI3KA_Act (P42336 whole entry, the tested form may be a part): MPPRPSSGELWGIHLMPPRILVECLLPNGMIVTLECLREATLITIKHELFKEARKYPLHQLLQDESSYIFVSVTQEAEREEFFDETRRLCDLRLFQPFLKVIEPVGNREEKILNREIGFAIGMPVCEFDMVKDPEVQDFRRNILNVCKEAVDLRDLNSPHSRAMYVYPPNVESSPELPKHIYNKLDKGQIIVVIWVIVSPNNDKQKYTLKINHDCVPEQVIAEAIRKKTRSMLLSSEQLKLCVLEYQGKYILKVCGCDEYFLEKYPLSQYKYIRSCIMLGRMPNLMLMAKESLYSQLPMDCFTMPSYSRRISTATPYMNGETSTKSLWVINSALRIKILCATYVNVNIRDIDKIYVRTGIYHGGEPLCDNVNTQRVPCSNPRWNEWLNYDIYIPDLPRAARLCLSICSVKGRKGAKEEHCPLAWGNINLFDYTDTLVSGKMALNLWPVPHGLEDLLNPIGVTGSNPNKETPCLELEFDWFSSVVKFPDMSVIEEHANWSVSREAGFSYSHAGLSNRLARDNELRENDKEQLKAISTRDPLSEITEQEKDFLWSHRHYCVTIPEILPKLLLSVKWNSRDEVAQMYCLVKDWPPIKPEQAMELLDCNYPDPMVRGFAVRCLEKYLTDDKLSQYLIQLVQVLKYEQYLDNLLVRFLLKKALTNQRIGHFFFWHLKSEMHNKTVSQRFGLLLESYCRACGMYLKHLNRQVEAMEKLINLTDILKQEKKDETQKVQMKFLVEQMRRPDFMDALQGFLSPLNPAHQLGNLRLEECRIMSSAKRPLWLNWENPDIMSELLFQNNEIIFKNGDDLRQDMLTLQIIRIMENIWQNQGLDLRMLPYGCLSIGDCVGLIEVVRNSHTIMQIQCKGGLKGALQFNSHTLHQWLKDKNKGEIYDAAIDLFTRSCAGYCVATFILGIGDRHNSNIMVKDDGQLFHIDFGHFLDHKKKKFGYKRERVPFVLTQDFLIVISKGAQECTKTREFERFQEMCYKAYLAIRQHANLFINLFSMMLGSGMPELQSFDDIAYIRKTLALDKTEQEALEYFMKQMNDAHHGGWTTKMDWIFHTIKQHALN

Ki [nM] | Compound
0.454 | Nc1ncc(-c2nc(N3CCOCC3)nc(N[C@@]3(CO)CCCN(C(=O)C4CC4)C3)c2F)cn1 [Example 156, [(3S)-3-{[2′-amino-5-fluoro-2-(morpholin-4-yl)-4,5′-bipyrimidin-6-yl]amino}-3-(hydroxymethyl)piperidin-1-yl](cyclopropyl)methanone]
1.62 | CC(O)[C@]1(Nc2cc(-c3cnc(N)nc3)nc(N3CCOCC3)n2)CCN(C(=O)OC(C)(C)C)C1 (stereo partly drawn) [Example 10, tert-butyl (3S)-3-{[2′-amino-2-(morpholin-4-yl)-4,5′-bipyrimidin-6-yl]amino}-3-(1-hydroxyethyl)pyrrolidine-1-carboxylate]
0.18 | COC(=O)N1CC[C@](CO)(Nc2cc(-c3cnc(N)nc3C)nc(N3CCOCC3)n2)C1 [Example 59, methyl (3S)-3-{[2′-amino-4′-methyl-2-(morpholin-4-yl)-4,5′-bipyrimidin-6-yl]amino}-3-(hydroxymethyl)pyrrolidine-1-carboxylate]
< 0.018 | COC(=O)N1CCC[C@](CO)(Nc2nc(N3CCOCC3)nc(-c3cnc(N)nc3)c2F)C1 [Example 154, methyl (3S)-3-{[2′-amino-5-fluoro-2-(morpholin-4-yl)-4,5′-bipyrimidin-6-yl]amino}-3-(hydroxymethyl)piperidine-1-carboxylate]
0.043 | Nc1ncc(-c2cc(N[C@@]3(CO)CCCN(C(=O)OCC(F)F)C3)nc(N3CCOCC3)n2)cn1 [Example 141, 2,2-difluoroethyl (3S)-3-{[2′-amino-2-(morpholin-4-yl)-4,5′-bipyrimidin-6-yl]amino}-3-(hydroxymethyl)piperidine-1-carboxylate]
0.979 | C[C@H]1COCCN1c1nc(N[C@]2(C)CCN(C(=O)OC(C)(C)C)C2)cc(-c2cnc(N)nc2)n1 [Example 15, tert-butyl (3R)-3-({2′-amino-2-[(3S)-3-methylmorpholin-4-yl]-4,5′-bipyrimidin-6-yl}amino)-3-methylpyrrolidine-1-carboxylate]
0.881 | COC(=O)N1CCC[C@@](CO)(Nc2cc(-c3cnc(N)nc3)nc(N3CCOCC3)n2)C1 [Example 6, methyl (3R)-3-{[2′-amino-2-(morpholin-4-yl)-4,5′-bipyrimidin-6-yl]amino}-3-(hydroxymethyl)piperidine-1-carboxylate]
< 0.018 | CC(C)(C)OC(=O)N1CCC(CO)(Oc2cc(-c3cnc(N)nc3)nc(N3CCOCC3)n2)C1 (single isomer, unassigned) [Example 8, tert-butyl 3-{[2′-amino-2-(morpholin-4-yl)-4,5′-bipyrimidin-6-yl]oxy}-3-(hydroxymethyl)pyrrolidine-1-carboxylate]
1.01 | C[C@H]1COCCN1c1nc(N[C@@]2(CO)CCNC2)c(F)c(-c2cnc(N)nc2)n1 [Example 112, [(3S)-3-({2′-amino-5-fluoro-2-[(3S)-3-methylmorpholin-4-yl]-4,5′-bipyrimidin-6-yl}amino)pyrrolidin-3-yl]methanol]
0.205 | Nc1ncc(-c2cc(N[C@@]3(CO)CCN(C(=O)NCC(F)F)C3)nc(N3CCOCC3)n2)cn1 [Example 131, (3S)-3-{[2′-amino-2-(morpholin-4-yl)-4,5′-bipyrimidin-6-yl]amino}-N-(2,2-difluoroethyl)-3-(hydroxymethyl)pyrrolidine-1-carboxamide]
0.158 | C[C@H]1COCCN1c1nc(N[C@@]2(C)CCN(C(=O)OC(C)(C)C)C2)cc(-c2cnc(N)nc2)n1 [Example 19, tert-butyl (3S)-3-({2′-amino-2-[(3S)-3-methylmorpholin-4-yl]-4,5′-bipyrimidin-6-yl}amino)-3-methylpyrrolidine-1-carboxylate]
19 | Cc1ncc(-c2cc(N[C@@]3(CO)CCN(C(=O)OC(C)(C)C)C3)nc(N3CCOCC3)n2)cc1F [Example 127, tert-butyl (3S)-3-{[6-(5-fluoro-6-methylpyridin-3-yl)-2-(morpholin-4-yl)pyrimidin-4-yl]amino}-3-(hydroxymethyl)pyrrolidine-1-carboxylate]
1.7 | CC(C)(C)OC(=O)N1CCCC(CO)(Nc2cc(-c3cnc(N)nc3)nc(N3CCOCC3)n2)C1 (centres unmarked) [Example 123, tert-butyl 3-{[2′-amino-2-(morpholin-4-yl)-4,5′-bipyrimidin-6-yl]amino}-3-(hydroxymethyl)piperidine-1-carboxylate]
1.94 | Nc1ncc(-c2cc(N[C@@]3(CO)CCN(C4CCNC4=O)C3)nc(N3CCOCC3)n2)cn1 (stereo partly drawn) [Example 80, (3S)-3-{[2′-amino-2-(morpholin-4-yl)-4,5′-bipyrimidin-6-yl]amino}-3-(hydroxymethyl)-1,3′-bipyrrolidin-2′-one]
48.7 | Nc1ncc(-c2nc(N3CCOCC3)nc(N[C@@]3(CO)CCNC3)c2F)cn1 [Example 137, [(3S)-3-{[2′-amino-5-fluoro-2-(morpholin-4-yl)-4,5′-bipyrimidin-6-yl]amino}pyrrolidin-3-yl]methanol]
0.116 | CC(C)CC(=O)N1CC[C@](CO)(Nc2cc(-c3cnc(N)nc3)nc(N3CCOCC3)n2)C1 [Example 57, 1-[(3S)-3-{[2′-amino-2-(morpholin-4-yl)-4,5′-bipyrimidin-6-yl]amino}-3-(hydroxymethyl)pyrrolidin-1-yl]-3-methylbutan-1-one]
0.062 | Nc1ncc(-c2cc(N[C@@]3(CO)CCN(C(=O)c4ccccn4)C3)nc(N3CCOCC3)n2)cn1 [Example 63, [(3S)-3-{[2′-amino-2-(morpholin-4-yl)-4,5′-bipyrimidin-6-yl]amino}-3-(hydroxymethyl)pyrrolidin-1-yl](pyridin-2-yl)methanone]
0.137 | CC(C)[C@@H](N)C(=O)N1CC[C@](CO)(Nc2cc(-c3cnc(N)nc3)nc(N3CCOCC3)n2)C1 [Example 50, (2R)-2-amino-1-[(3S)-3-{[2′-amino-2-(morpholin-4-yl)-4,5′-bipyrimidin-6-yl]amino}-3-(hydroxymethyl)pyrrolidin-1-yl]-3-methylbutan-1-one]
0.412 | CCOC(=O)N1CC[C@@](CC)(Nc2cc(-c3cnc(N)nc3)nc(N3CCOCC3)n2)C1 [Example 95, ethyl (3R)-3-{[2′-amino-2-(morpholin-4-yl)-4,5′-bipyrimidin-6-yl]amino}-3-ethylpyrrolidine-1-carboxylate]
13.9 | Nc1ncc(-c2nc(N3CCOCC3)nc(N[C@]3(CO)CCCNC3)c2F)cn1 [Example 144, [(3R)-3-{[2′-amino-5-fluoro-2-(morpholin-4-yl)-4,5′-bipyrimidin-6-yl]amino}piperidin-3-yl]methanol]
0.739 | Cc1ncc(-c2cc(N[C@@]3(CO)CCN(C(=O)C4(F)CC4)C3)nc(N3CCOCC3)n2)cn1 [Example 136, (1-fluorocyclopropyl)[(3S)-3-(hydroxymethyl)-3-{[2′-methyl-2-(morpholin-4-yl)-4,5′-bipyrimidin-6-yl]amino}pyrrolidin-1-yl]methanone]
2.13 | CC(=O)N1CC[C@@](CO)(Nc2cc(-c3cnc(N)nc3)nc(N3CCOCC3)n2)C1 [Example 31, 1-[(3R)-3-{[2′-amino-2-(morpholin-4-yl)-4,5′-bipyrimidin-6-yl]amino}-3-(hydroxymethyl)pyrrolidin-1-yl]ethanone]

Compound | Ki [nM]
CC(C)(C)OC(=O)N1CC[C@](C)(Nc2cc(-c3cnc(N)nc3)nc(N3CCOCC3)n2)C1 [Example 40, tert-butyl (3S)-3-{[2′-amino-2-(morpholin-4-yl)-4,5′-bipyrimidin-6-yl]amino}-3-methylpyrrolidine-1-carboxylate] | 0.095
